Broadly, the MIC is the least concentration at which growth counts as inhibited.

Data on 2 molecules can be found in patent US10351525B2, “Beta lactamase inhibitors” (Oxford University Innovation Limited, priority 2014, dated 2019).

For series [1], the system named is Galleria mellonella wax moth larvae. In words: In vivo toxicity in wax moth larvae model. Particulars: doses up to 80 mg/kg.
In series [2] the test system is K. pneumoniae 120. In words: MIC of MEM with and without ML302F (1:8), VIM-4 producer. Format: cell-based. The following applies: Klebsiella pneumoniae; K. pneumoniae 120 (VIM-4); MEM alone or with ML302F (1:8). The method, then:
(§1) In a further study, antimicrobial activities of MEM and ML302F alone and in combination were assessed in-vitro against 31 VIM-producing clinical isolates.

Series [3] concerns K. pneumoniae 128. The description is as above. The format is cell-based. Particulars: Klebsiella pneumoniae; K. pneumoniae 128 (VIM-4); MEM alone or with ML302F (1:8). How it is done: as §1
Series [4] concerns E. cloacae 102. The series is described as above. Format: cell-based. The following applies: Enterobacter cloacae; E. cloacae 102 (VIM-4); MEM alone or with ML302F (1:8). The method, then: as §1
The test system of series [5] is E. coli 98. The series is described as above. Format: cell-based. The following applies: Escherichia coli; E. coli 98 (VIM-4); MEM alone or with ML302F (1:8). The method, then:
as §1

Series [6] deals with K. pneumoniae 101. Described as above. Format: cell-based. The following applies: Klebsiella pneumoniae; K. pneumoniae 101 (VIM-4); MEM alone or with ML302F (1:8). How it is done:
as §1

On to `O=C(O)C(S)=Cc1c(Cl)ccc(Cl)c1Cl` (racemic) [ML302F, 2-Mercapto-3-(2,3,6-trichlorophenyl)acrylic acid], for which the In vivo toxicity entry in series [1] (G. mellonella, injection) is listed as “non-toxic”. Also, the “Survival of all larvae” value in series [1] (injection into hemocoel, at 96 hrs) amounted to 100%.

For the molecule `C[C@@H](O)[C@H]1C(=O)N2C(C(=O)O)=C(S[C@@H]3CN[C@H](C(=O)N(C)C)C3)[C@H](C)[C@H]12` [Meropenem, meropenem], the MIC was 16 µg/mL in series [2]; 4 µg/mL in series [3]; 32 µg/mL in series [4]; 16 µg/mL in series [5]; 32 µg/mL in series [6].
